Experimental data reported in patent US20130203805A1, “Methods for treating anemia using inhibitors of hypoxia-inducible factor (HIF) hydroxylase” (FIBROGEN, INC., priority 2001, published 2013).

Tests used:
[1] = Hematocrit (Example 2, Experiment I); assay type: in vivo, Swiss Webster male mice; conditions: mice; 200 mg/kg/day oral gavage 2.5 days; 4 h after final dose; relative to untreated controls; FIG. 2C
Procedure: Twelve Swiss Webster male mice (30-32 g) were obtained from Simonsen, Inc. (Gilroy Calif.), and treated by oral gavage two times per day for 2.5 days (5 doses) with a 4 ml/kg volume of either 0.5% carboxymethyl cellulose (CMC; Sigma-Aldrich, St. Louis Mo.) (0 mg/kg/day) or 2.5% Compound C (25 mg/ml in 0.5% CMC) (200 mg/kg/day). Four hours after the final dose, animals were anesthetized with isoflurane and two blood samples were collected from the abdominal vein. One blood sample was collected into a MICROTAINER serum separator tube (Becton-Dickinson, Franklin Lakes N.J.), and incubated at room temperature for 30 minutes, centrifuged at 8,000 rpm at 4° C. for 10 minutes. The serum fraction was then processed and analyzed for erythropoietin (EPO) expression using a QUANTIKINE immunoassay (R&D Systems) according to the manufacturer's instructions. The second blood sample was collected into a MICROTAINER EDTA-2K tube (Becton-Dickinson) for hematocrit analysis. Hematocrit was measured by drawing EDTA-blood into a 75 mm×1.1-12 mm I.D. capillary tube (Chase Scientific Glass, Inc., Rockwood Tenn.) to approximately ¾ length. One end of the tube was sealed with CRITOSEAL sealant (Sherwood Medical Company) and the tube was centrifuged in a J-503M MICROHEMATOCRIT centrifuge (Jorgensen Laboratories, Inc., Loveland Colo.) at 12,000 rpm for 5 minutes. Hematocrit was read against a reader card. […]

[2] = tested on: erythropoietin transcript; experiment: Erythropoietin transcript in tissues by Murine genome U74AV2 array (Example 7); assay type: in vivo, male Swiss Webster mice; conditions: mice
Procedure: Twenty-five male Swiss Webster mice (35-38 g) were obtained from Simonson, Inc., and treated by oral gavage […] for 2.5 days (5 doses) with a 4 ml/kg volume of either 0.5% carboxymethyl cellulose (CMC; Sigma-Aldrich, St. Louis Mo.) (0 mg/kg/day), compound C at 30 or 100 mg/kg/day […], or blood was collected daily from animals as described above to induce anemia. Blood samples were collected and kidney, liver, brain, lung, heart, and skeletal muscle tissues were harvested and processed as for Example 2, Experiment I (supra).
RNA isolation was carried out using the following protocol. A 50 mg section of each organ was diced, 875 μl of RLT buffer (RNEASY kit; Qiagen Inc., Valencia Calif.) was added, and the pieces were homogenized for about 20 seconds using a rotor-stator POLYTRON homogenizer (Kinernatica, Inc., Cincinnati Ohio). The homogenate was micro-centrifuged for 3 minutes to pellet insoluble material, the supernatant was transferred to a new tube and RNA was isolated using an RNEASY kit (Qiagen) according to the manufacturer's instructions. The RNA was eluted into 80 μL of water and quantitated with RIBOGREEN reagent (Molecular Probes, Eugene Oreg.). Genomic DNA was then removed from the RNA using a DNA-FREE kit (Ambion Inc, Austin Tex.) according to the manufacturer's instructions. The absorbance at 260 and 280 nm was measured to determine RNA purity and concentration.
RNA was precipitated in 0.3 M sodium acetate (pH 5.2), 50 ng/ml glycogen, and 2.5 volumes of ethanol for one hour at −20° C. Samples were centrifuged and pellets were washed with cold 80% ethanol, dried, and resuspend in water. Double stranded cDNA was synthesized using a T7-(dT)24 first strand primer (Affymetrix, Inc., Santa. Clara Calif.) and the […] CHOICE system (Invitrogen) according to the manufacturer's instructions. The final cDNA was extracted with an equal volume of 25:24:1 phenol:chloroform:isoamyl alcohol using a PHASE LOCK GEL insert (Brinkman, Inc., Westbury N.Y.). The aqueous phase was collected and cDNA was precipitated using 0.5 volumes of 7.5 M ammonium acetate and 2.5 volumes of ethanol. Alternatively, cDNA was purified using the […] sample cleanup module (Affymetrix) according to the manufacturer's instructions. […]
Hybridization cocktail was prepared by bringing 5 μg probe to 100 μl in 1× hybridization buffer (100 mM MES, 1 M [Na^+], 20 mM EDTA, 0.01% Tween 20), 100 μg/ml herring sperm DNA, 500 μg/ml acetylated BSA, 0.03 nM control oligo B2 (Affymetrix), and 1× […] eukaryotic hybridization control (Affymetrix). […] Arrays were analyzed using a […] scanner (Affymetrix) and Microarray Suite software (Affymetrix). […]

[3] = 30 or 100 mg/kg/day oral gavage for 4 days, FIG. 6

## O=C(O)CNC(=O)c1nc(Cl)c2ccccc2c1O [Compound C, [(1-chloro-4-hydroxy-isoquinoline-3-carbonyl)-amino]-acetic acid]
[1]
  hematocrit: significantly increased
[2]; [3]
  erythropoietin transcript, brain: dose-dependent increase
  erythropoietin transcript, kidney: dose-dependent increase
  erythropoietin transcript, liver: dose-dependent increase
[2]; brain, kidney, liver, 30 or 100 mg/kg/day oral gavage
  level of expression versus transcription seen with bleed-induced anemia in the same tissue: equivalent to or exceeded
